# Measurements reported in ChEMBL document CHEMBL1201862, “PubChem BioAssay data set” (2004).
#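 Interpolation was linear, between the two tested concentrations surrounding the appropriate level; five concentrations were tested over 48 hours in 96-well plates. The concentration for 50% growth inhibition is given as GI50.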 The source made the active and inactive calls. No stated cut-off is given here; in the data, active = GI50 up to about 1.1 µM and inactive = higher.
# Tests used:
# Assay in all cases: NCI tumour cell line growth inhibition, 48 h
# BT-549 = test system: BT-549
# DU-145 = test system: DU-145
# EKVX = test system: EKVX
# HCT-15 = test system: HCT-15
# HL-60 = test system: HL-60
# HT-29 = test system: HT-29
# KM12 = test system: KM12
# M14 = test system: M14
# MDA-MB-435 = test system: MDA-MB-435
# MDA-N = test system: MDA-N
# NCI-H226 = test system: NCI-H226
# NCI-H460 = test system: NCI-H460
# RPMI-8226 = test system: RPMI-8226
# SK-MEL-28 = test system: SK-MEL-28
# SN12C = test system: SN12C
# SW-620 = test system: SW-620
# T47D = test system: T47D
# U-251 = test system: U-251
# UO-31 = test system: UO-31
# SR = test system: SR
Compound,GI50 (BT-549),GI50 (DU-145),GI50 (EKVX),GI50 (HCT-15),GI50 (HL-60),GI50 (HT-29),GI50 (KM12),GI50 (M14),GI50 (MDA-MB-435),GI50 (MDA-N),GI50 (NCI-H226),GI50 (NCI-H460),GI50 (RPMI-8226),GI50 (SK-MEL-28),GI50 (SN12C),GI50 (SW-620),GI50 (T47D),GI50 (U-251),GI50 (UO-31),GI50 (SR)
C/C=C/C1OC(O)(C(C)C(O)[C@H](C)C2OC(=O)/C(OC)=C/C(C)=C/[C@@H](C)[C@@H](O)[C@@H](C)C(O)C(C)C/C(C)=C/C=C/C2OC)C[C@@H](OC2CC(O)C(OC(N)=O)C(C)O2)C1C (stereo partly drawn),< 0.01 µM (active),< 0.01 µM (active),< 0.01 µM (active),< 0.01 µM,< 0.01 µM (active),< 0.01 µM (active),< 0.01 µM (active),< 0.01 µM (active),< 0.01 µM (active),< 0.01 µM (active),< 0.01 µM (active),< 0.01 µM (active),< 0.01 µM (active),1.45 µM (inactive),< 0.01 µM (active),< 0.01 µM (active),< 0.01 µM (active),< 0.0167 µM (active),< 0.01 µM (active),–
c1ccc(C(C2=Nc3cccc4cccc(c34)N2)c2ccccc2)cc1,22 µM (inactive),32.2 µM (inactive),30.3 µM (inactive),25.1 µM,31.7 µM (inactive),23.2 µM (inactive),20.6 µM (inactive),18.1 µM (inactive),25.5 µM (inactive),23.4 µM (inactive),31.6 µM (inactive),24.7 µM (inactive),21.6 µM (inactive),23.6 µM (inactive),14.8 µM (inactive),47.3 µM (inactive),13.3 µM (inactive),18 µM (inactive),17.8 µM (inactive),–
CN(C)C(=S)N/N=C\C(=N/NC(=S)N(C)C)c1ccccc1,> 22.2 µM (inactive),4.23 µM (inactive),7.36 µM (inactive),2.71 µM,–,5.16 µM (inactive),15 µM (inactive),5.51 µM (inactive),34.9 µM (inactive),> 61.8 µM (inactive),4.61 µM (inactive),1.36 µM (inactive),4.68 µM (inactive),7.16 µM (inactive),6.24 µM (inactive),4.53 µM (inactive),1.28 µM (inactive),3.96 µM (inactive),3.69 µM (inactive),–
CC[C@H](C)C1=C(O)[N@+]2([O-])Oc3ccc(-c4c(O)c(O)c(-c5ccc(OC(C)=O)cc5)c(OC(C)=O)c4OC(C)=O)cc3O[C@]2([C@@H](C)CC)C(=O)N1O,32.7 µM (inactive),> 50 µM (inactive),> 50 µM (inactive),19.7 µM,15.2 µM (inactive),25.3 µM (inactive),29.9 µM (inactive),27.6 µM (inactive),27.9 µM (inactive),34 µM (inactive),–,21.5 µM (inactive),12.8 µM (inactive),33 µM (inactive),17.2 µM (inactive),10.7 µM (inactive),21.7 µM (inactive),18.6 µM (inactive),> 50 µM (inactive),12.5 µM (inactive)
COc1ccc(C2SCC(=O)N2NC(=O)C(C)Oc2ccccc2Cl)cc1 (stereo not drawn),85.7 µM (inactive),94.8 µM (inactive),83.2 µM (inactive),49.8 µM,17.1 µM (inactive),65.8 µM (inactive),35.9 µM (inactive),41.9 µM (inactive),33 µM (inactive),–,51.6 µM (inactive),70.1 µM (inactive),32.4 µM (inactive),> 100 µM (inactive),63.2 µM (inactive),49.4 µM (inactive),27.2 µM (inactive),38 µM (inactive),70.5 µM (inactive),26.1 µM (inactive)
Cc1cc(=O)oc2cc(OCc3c(F)cccc3Cl)ccc12,28.2 µM (inactive),> 100 µM (inactive),–,–,3.76 µM (inactive),–,1.99 µM (inactive),9.35 µM (inactive),1.78 µM (inactive),2.3 µM (inactive),33.3 µM (inactive),–,–,> 100 µM (inactive),> 100 µM (inactive),–,2.49 µM (inactive),8.85 µM (inactive),> 100 µM (inactive),–
NC(C(F)(F)F)(C(F)(F)F)P(=O)(Cc1ccccc1)Cc1ccccc1,> 100 µM (inactive),> 100 µM (inactive),> 100 µM (inactive),> 100 µM,> 100 µM (inactive),> 100 µM (inactive),> 100 µM (inactive),> 100 µM (inactive),> 100 µM (inactive),> 100 µM (inactive),–,> 100 µM (inactive),> 100 µM (inactive),> 100 µM (inactive),> 100 µM (inactive),> 100 µM (inactive),> 100 µM (inactive),> 100 µM (inactive),> 100 µM (inactive),> 100 µM (inactive)
CCCCCCCCP(=O)(O)OP(=O)(O)OCC1OC(n2ccc(N)nc2=O)C(O)C1O (stereo not drawn),> 100 µM (inactive),–,> 100 µM (inactive),> 100 µM,> 100 µM (inactive),> 100 µM (inactive),> 100 µM (inactive),> 100 µM (inactive),> 100 µM (inactive),> 100 µM (inactive),> 100 µM (inactive),> 100 µM (inactive),> 100 µM (inactive),> 100 µM (inactive),> 100 µM (inactive),> 100 µM (inactive),> 100 µM (inactive),> 100 µM (inactive),> 100 µM (inactive),–
Nc1ccn(C2OC(C(OC3OC(CO)C(O)C(N)C3O)C(O)C(O)C(O)C(O)CO)C(N)C(O)C2O)c(=O)n1 (stereo not drawn),31.3 µM (inactive),> 100 µM (inactive),> 100 µM (inactive),36.3 µM,> 100 µM (inactive),> 100 µM (inactive),70 µM (inactive),44 µM (inactive),> 100 µM (inactive),> 100 µM (inactive),–,22 µM (inactive),> 100 µM (inactive),> 100 µM (inactive),> 100 µM (inactive),> 100 µM (inactive),> 100 µM (inactive),> 100 µM (inactive),52 µM (inactive),19.9 µM (inactive)
O=C(/C=C/c1ccc(Cl)cc1)c1ccc(Cl)s1,27 µM (inactive),> 100 µM (inactive),68.9 µM (inactive),60.3 µM,24.3 µM (inactive),42.3 µM (inactive),29.1 µM (inactive),44.1 µM (inactive),> 10 µM (inactive),28.4 µM (inactive),–,67.8 µM (inactive),17.8 µM (inactive),50.1 µM (inactive),> 100 µM (inactive),22 µM (inactive),46 µM (inactive),32.6 µM (inactive),51.8 µM (inactive),34.3 µM (inactive)
O=P1(Oc2ccc(Cl)cc2)OCCS1 (stereo not drawn),> 100 µM (inactive),> 100 µM (inactive),> 100 µM (inactive),> 100 µM,80.7 µM (inactive),> 100 µM (inactive),–,> 100 µM (inactive),–,> 100 µM (inactive),> 100 µM (inactive),> 100 µM (inactive),> 100 µM (inactive),> 100 µM (inactive),> 100 µM (inactive),> 100 µM (inactive),> 100 µM (inactive),> 100 µM (inactive),> 100 µM (inactive),> 100 µM (inactive)
COc1ccc2c(c1)CCC1=CC3(CCC12C)SCCS3 (stereo not drawn),> 10 µM (inactive),> 10 µM (inactive),–,6.38 µM,2.81 µM (inactive),3.68 µM (inactive),4.27 µM (inactive),4.46 µM (inactive),3.74 µM (inactive),2.59 µM (inactive),–,–,3.5 µM (inactive),5.24 µM (inactive),9.25 µM (inactive),4.56 µM (inactive),6.03 µM (inactive),9.73 µM (inactive),–,4.41 µM (inactive)
Cc1cccc(C)c1NC(=O)C(=O)CC(=O)c1sc(Nc2c(C)cccc2C)nc1C,> 100 µM (inactive),> 100 µM (inactive),> 100 µM (inactive),> 100 µM,25.5 µM (inactive),> 100 µM (inactive),> 100 µM (inactive),> 100 µM (inactive),> 100 µM (inactive),> 100 µM (inactive),> 100 µM (inactive),> 100 µM (inactive),> 100 µM (inactive),–,> 100 µM (inactive),> 100 µM (inactive),> 100 µM (inactive),> 100 µM (inactive),50.8 µM (inactive),–
O=C1CCCSCCCC(=O)CCCSCCC1,> 100 µM (inactive),> 100 µM (inactive),> 100 µM (inactive),> 100 µM,> 100 µM (inactive),> 100 µM (inactive),> 100 µM (inactive),> 100 µM (inactive),> 100 µM (inactive),> 100 µM (inactive),–,> 100 µM (inactive),–,> 100 µM (inactive),> 100 µM (inactive),> 100 µM (inactive),> 100 µM (inactive),> 100 µM (inactive),> 100 µM (inactive),> 100 µM (inactive)
COc1ccccc1-c1nc[nH]c1-c1ccccc1OC,33.4 µM (inactive),–,25.6 µM (inactive),35 µM,–,–,2.45 µM (inactive),19.7 µM (inactive),–,16.1 µM (inactive),–,24.3 µM (inactive),29.3 µM (inactive),33.7 µM (inactive),38 µM (inactive),40.3 µM (inactive),37.6 µM (inactive),–,45.1 µM (inactive),–
N#CS/C(Cl)=C(/C(Cl)=C(Cl)Cl)[N+](=O)[O-],36.8 µM (inactive),> 100 µM (inactive),> 100 µM (inactive),20.9 µM,29.1 µM (inactive),34.5 µM (inactive),47.6 µM (inactive),34.4 µM (inactive),–,34.6 µM (inactive),> 100 µM (inactive),42.8 µM (inactive),–,29.4 µM (inactive),36.9 µM (inactive),29.7 µM (inactive),37.2 µM (inactive),35.8 µM (inactive),24.5 µM (inactive),24.7 µM (inactive)
